Drawing on US10477864B2, “Microbiocidal quinoline (thio)carboxamide derivatives” (priority 2016, dated 2019), this text covers inhibition of growth, melting point and pest or weed control for 16 compounds.

Series [1] deals with Botryotinia fuckeliana (Botrytis cinerea). Description: Botryotinia fuckeliana (Botrytis cinerea) / liquid culture (gray mould). It is filed as cell-based. Particulars: 72 h, read-out: control of Botryotinia fuckeliana.
In series [2] the test system is Magnaporthe grisea (Pyricularia oryzae). Description: microbe, parasite or virus in culture. It counts as cell-based. Particulars: 72 h, read-out: control of Magnaporthe grisea.
Series [3] deals with Sclerotinia sclerotiorum. Nature of the series: Sclerotinia sclerotiorum / liquid culture (cottony rot). Conditions: 72 h, read-out: control of Sclerotinia sclerotiorum.
Experimental: Sclerotinia sclerotiorum/Liquid Culture (Cottony Rot)
Mycelia fragments of a newly grown liquid culture of the fungus are directly mixed into nutrient broth (Vogels broth). After placing a (DMSO) solution of test compound into a microtiter plate (96-well format) the nutrient broth containing the fungal material is added. The test plates are incubated at 24° C. and the inhibition of growth is determined photometrically 3-4 days after application.
Series [4] relates to Glomerella lagenarium (Colletotrichum lagenarium). Description: Glomerella lagenarium (Colletotrichum lagenarium) / liquid culture (anthracnose). It is filed as cell-based. Conditions: Colletotrichum orbiculare; read-out: control of Glomerella lagenarium.
Series [5] has as its system Fusarium culmorum. Description: microbe, parasite or virus in culture. It is filed as cell-based. Conditions: read-out: control of Fusarium culmorum.
Series [6] deals with Fusarium culmorum. Nature of the series: whole plant or invertebrate. It is filed as in vivo. Conditions: in Triticum aestivum, read-out: control of Fusarium culmorum.
Series [7] deals with Monographella nivalis (Microdochium nivale). Description: Monographella nivalis (Microdochium nivale) / liquid culture (foot rot cereals). It counts as cell-based. Particulars: 96 h, read-out: control of Monographella nivalis.
Series [8] relates to Gaeumannomyces graminis. Nature of the series: Gaeumannomyces graminis / liquid culture (take-all of cereals). Conditions: read-out: control of Gaeumannomyces graminis. It is filed as cell-based.

The structures appear in SMILES notation. Where only a bound is given, the exact number is not on record here.

In general, melting point refers to the temperature of the solid-liquid transition. Compound `Cc1c(C(=O)NC(C)(Cc2ccccc2)CC(C)C)cnc2c(F)cccc12` (stereo not shown) [Compound E-15, N-(1-benzyl-1,3-dimethyl-butyl)-8-fluoro-4-methyl-quinoline-3-carboxamide] displayed a melting point of 92 to 94 °C. Besides, the inhibition of growth at 200 ppm in [1] was at least 80%. In [2], the inhibition of growth at 200 ppm is at least 80%. For the same compound, in [3], the inhibition of growth at 20 ppm was at least 80%. In addition, the inhibition of growth at 200 ppm in series [4] is at least 80%. Also, in series [5], the inhibition of growth at 200 ppm is at least 80%. The pest or weed control at 200 ppm in series [6] was at least 80%.

Regarding `CC(C)CC(C)(Cc1ccccc1F)NC(=O)c1cnc2c(F)cccc2c1` (stereo not shown) [Compound E-21, 8-fluoro-N-[1-[(2-fluorophenyl)methyl]-1,3-dimethyl-butyl]quinoline-3-carboxamide], the melting point is 105 to 106 °C. In addition, the inhibition of growth at 200 ppm in series [1] is at least 80%. Further, in series [2], the inhibition of growth at 200 ppm is at least 80%. The inhibition of growth at 200 ppm in series [4] is at least 80%. In addition, in [7], the inhibition of growth at 200 ppm was at least 80%. The inhibition of growth at 200 ppm in [5] was at least 80%. Moreover, the inhibition of growth at 200 ppm in [8] is at least 80%. Also, the pest or weed control at 200 ppm in series [6] was at least 80%.

As to `CC(C)CC(C)(Cc1ccccc1Cl)NC(=O)c1cnc2c(F)cccc2c1` (stereo not shown) [Compound E-22, N-[1-[(2-chlorophenyl)methyl]-1,3-dimethyl-butyl]-8-fluoro-quinoline-3-carboxamide], the melting point was in the range of 109 to 110 °C. In series [1], the inhibition of growth at 200 ppm is at least 80%. Also, the inhibition of growth at 200 ppm in [2] was at least 80%. Besides, the inhibition of growth at 200 ppm in series [4] was at least 80%. Also, the inhibition of growth at 200 ppm in series [7] was at least 80%. Also, the inhibition of growth at 200 ppm in series [5] was at least 80%. For the same compound, the inhibition of growth at 200 ppm in [8] is at least 80%. The pest or weed control at 200 ppm in series [6] is at least 80%.

As to `Cc1ccccc1CC(C)(CC(C)C)NC(=O)c1cnc2c(F)cccc2c1` (stereo not shown) [Compound E-23, N-[1,3-dimethyl-1-(o-tolylmethyl)butyl]-8-fluoro-quinoline-3-carboxamide], the melting point was 125 to 126 °C. In addition, the inhibition of growth at 200 ppm in series [1] is at least 80%. In addition, in [2], the inhibition of growth at 200 ppm is at least 80%. In addition, the inhibition of growth at 200 ppm in [4] is at least 80%. In series [7], the inhibition of growth at 200 ppm was at least 80%. The inhibition of growth at 200 ppm in series [5] was at least 80%. Further, the inhibition of growth at 200 ppm in series [8] is at least 80%. Further, the pest or weed control at 200 ppm in series [6] was at least 80%.

On to `CC(C)CC(C)(Cc1ccc(Cl)cc1)NC(=O)c1cnc2c(F)cccc2c1` (stereo not shown) [Compound E-25], for which the melting point lay in the range of 57 to 59 °C. In addition, the inhibition of growth at 200 ppm in series [1] was at least 80%. In addition, the inhibition of growth at 200 ppm in series [2] is at least 80%. Moreover, in [3], the inhibition of growth at 20 ppm was at least 80%. Also, the inhibition of growth at 200 ppm in series [4] is at least 80%. In addition, the inhibition of growth at 200 ppm in [5] is at least 80%. Further, the inhibition of growth at 200 ppm in series [8] is at least 80%. Besides, in series [6], the pest or weed control at 200 ppm is at least 80%.

The compound `CC(C)CC(C)(Cc1cccc(Cl)c1)NC(=O)c1cnc2c(F)cccc2c1` (stereo not shown) [Compound E-27, N-[1-[(3-chlorophenyl)methyl]-1,3-dimethyl-butyl]-8-fluoro-quinoline-3-carboxamide] yielded a melting point of 41 to 42 °C. Also, the inhibition of growth at 200 ppm in series [1] is at least 80%. Besides, in series [2], the inhibition of growth at 200 ppm was at least 80%. In addition, in series [4], the inhibition of growth at 200 ppm is at least 80%. For the same compound, the inhibition of growth at 200 ppm in series [7] is at least 80%. In series [5], the inhibition of growth at 200 ppm is at least 80%. The inhibition of growth at 200 ppm in series [8] is at least 80%.

Turning to `CC(C)CC(Cc1ccccc1)NC(=O)c1cnc2c(F)cccc2c1` (stereo not shown) [Compound E-29, N-(1-benzyl-3-methyl-butyl)-8-fluoro-quinoline-3-carboxamide], the melting point lay in the range of 136 to 139 °C. In [1], the inhibition of growth at 200 ppm was at least 80%. Further, the inhibition of growth at 200 ppm in [2] is at least 80%. Further, in series [3], the inhibition of growth at 20 ppm is at least 80%. Further, the inhibition of growth at 200 ppm in series [4] was at least 80%. Also, the inhibition of growth at 200 ppm in [5] was at least 80%. In addition, in series [6], the pest or weed control at 200 ppm is at least 80%.

`CC(C)(C)CC(C)(Cc1ccccc1)NC(=O)c1cnc2c(F)cccc2c1` (stereo not shown) [Compound E-34, N-(1-benzyl-1,3,3-trimethyl-butyl)-8-fluoro-quinoline-3-carboxamide] came in with a melting point of 48 to 50 °C. Also, in series [1], the inhibition of growth at 200 ppm was at least 80%. Besides, the inhibition of growth at 200 ppm in series [2] was at least 80%. Also, in series [3], the inhibition of growth at 20 ppm was at least 80%. Besides, the inhibition of growth at 200 ppm in series [4] was at least 80%. Also, in series [7], the inhibition of growth at 200 ppm is at least 80%. Besides, in series [5], the inhibition of growth at 200 ppm is at least 80%.

The compound `C=C(C)CC(C)(Cc1ccccc1)NC(=O)c1cnc2ccccc2c1` (stereo not shown) [Compound E-36, N-(1-benzyl-1,3-dimethyl-but-3-enyl)quinoline-3-carboxamide] registered a melting point of 99 to 103 °C. Also, the inhibition of growth at 200 ppm in series [1] was at least 80%. Besides, in series [2], the inhibition of growth at 200 ppm was at least 80%. Besides, the inhibition of growth at 20 ppm in series [3] was at least 80%. Further, in series [4], the inhibition of growth at 200 ppm was at least 80%. In addition, the inhibition of growth at 200 ppm in series [7] is at least 80%. The inhibition of growth at 200 ppm in series [5] is at least 80%. In addition, the pest or weed control at 200 ppm in series [6] is at least 80%.

`CC(Cc1ccccc1)(CC(F)(F)F)NC(=O)c1cnc2c(F)cccc2c1` (stereo not shown) [Compound E-39, N-(1-benzyl-3,3,3-trifluoro-1-methyl-propyl)-8-fluoro-quinoline-3-carboxamide] returned a melting point of 158 to 160 °C. Also, the inhibition of growth at 200 ppm in [1] was at least 80%. Besides, the inhibition of growth at 200 ppm in series [2] is at least 80%. In [3], the inhibition of growth at 20 ppm was at least 80%. Moreover, the inhibition of growth at 200 ppm in [4] was at least 80%. In addition, the inhibition of growth at 200 ppm in [5] is at least 80%. For the same compound, the inhibition of growth at 200 ppm in [8] was at least 80%. In series [6], the pest or weed control at 200 ppm was at least 80%.

The compound `CC(C)CC(C)(Cc1cccc(Br)c1)NC(=O)c1cnc2c(F)cccc2c1` (stereo not shown) [Compound E-45, N-[1-[(3-bromophenyl)methyl]-1,3-dimethyl-butyl]-8-fluoro-quinoline-3-carboxamide] displayed a melting point of 87 to 89 °C. Moreover, the inhibition of growth at 200 ppm in series [1] is at least 80%. Also, the inhibition of growth at 200 ppm in series [2] was at least 80%. Further, in [4], the inhibition of growth at 200 ppm was at least 80%. Besides, in series [7], the inhibition of growth at 200 ppm was at least 80%. Further, the inhibition of growth at 200 ppm in [5] is at least 80%. The inhibition of growth at 200 ppm in [8] was at least 80%.

Consider `CC1(CC(C)(Cc2ccccc2)NC(=O)c2cnc3c(F)cccc3c2)CC1` (stereo not shown) [Compound E-47, N-[1-benzyl-1-methyl-2-(1-methylcyclopropyl)ethyl]-8-fluoro-quinoline-3-carboxamide], for which the melting point fell in the range of 126 to 129 °C. Also, the inhibition of growth at 200 ppm in series [1] is at least 80%. The inhibition of growth at 200 ppm in series [2] was at least 80%. Besides, the inhibition of growth at 20 ppm in [3] was at least 80%. For the same compound, in [4], the inhibition of growth at 200 ppm is at least 80%. Besides, the inhibition of growth at 200 ppm in series [5] is at least 80%. For the same compound, the inhibition of growth at 200 ppm in series [8] was at least 80%.

`CC(C)CC(C)(Cc1ccccc1)NC(=O)c1cnc2c(F)c(F)ccc2c1` (stereo not shown) [Compound E-48, N-(1-benzyl-1,3-dimethyl-butyl)-7,8-difluoro-quinoline-3-carboxamide] registered a melting point of 114 to 116 °C. The inhibition of growth at 200 ppm in series [1] was at least 80%. Besides, the inhibition of growth at 200 ppm in series [2] is at least 80%. For the same compound, the inhibition of growth at 200 ppm in series [4] was at least 80%. In series [7], the inhibition of growth at 200 ppm was at least 80%. Also, in series [5], the inhibition of growth at 200 ppm was at least 80%. For the same compound, the inhibition of growth at 200 ppm in series [8] was at least 80%. Besides, in series [6], the pest or weed control at 200 ppm is at least 80%.

`CC(C)CC(C)(Cc1ccccc1)NC(=S)c1cnc2c(F)cccc2c1` (stereo not shown) [Compound E-114, N-(1-benzyl-1,3-dimethyl-butyl)-8-fluoro-quinoline-3-carbothioamide]: the melting point lay in the range of 150 to 153 °C. In addition, the inhibition of growth at 200 ppm in series [1] is at least 80%. Besides, in series [2], the inhibition of growth at 200 ppm was at least 80%. In addition, the inhibition of growth at 20 ppm in series [3] is at least 80%. Also, the inhibition of growth at 200 ppm in series [4] was at least 80%. In addition, the inhibition of growth at 200 ppm in [7] is at least 80%. The inhibition of growth at 200 ppm in [5] was at least 80%. The pest or weed control at 200 ppm in series [6] is at least 80%.

On to `CC(C)C[C@](C)(Cc1ccccc1)NC(=O)c1cnc2c(F)cccc2c1` [Compound F-1, N-[(1R)-1-benzyl-1,3-dimethyl-butyl]-8-fluoro-quinoline-3-carboxamide], for which the inhibition of growth at 200 ppm in series [1], in [2], in [4], in [7], in series [5] and in series [8] was at least 80% in each case. The inhibition of growth at 20 ppm in series [3] is at least 80%. Also, the pest or weed control at 200 ppm in series [6] is at least 80%.

As for `C=C(C)C[C@](C)(Cc1ccccc1)NC(=O)c1cnc2c(F)cccc2c1` [Compound F-10, N-[(1R)-1-benzyl-1,3-dimethyl-but-3-enyl]-8-fluoro-quinoline-3-carboxamide], the inhibition of growth at 200 ppm in [1], in series [4], in [7], in series [5] and in [8] was at least 80% throughout. The inhibition of growth at 20 ppm in series [3] was at least 80%. For the same compound, the pest or weed control at 200 ppm in [6] was at least 80%.
